For 31 molecules, Ki results are on record in US12208088B2 (Genentech, Inc., priority 2018, dated 2025).

Molecules are shown by their SMILES.

The target in this test is HPK1 (Homo sapiens (Human), UniProt Q92918). Nature of the test: HPK1 Lantha binding assay ("Lanth"). The following applies: binding assays; Morrison Ki fit. Put shortly: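 TR-FRET binding competition using 2 nM HPK1, 2 nM Eu-anti-GST antibody and 15 nM Tracer222 at 23 °C. Compound was incubated 1 h with enzyme and antibody, then 1 h after tracer addition, with an 11-point 5-fold dilution series. Ki obtained from a Morrison fit that corrects for tracer concentration and Kd.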
Sequence of HPK1 (Q92918 1-346 limits assumed): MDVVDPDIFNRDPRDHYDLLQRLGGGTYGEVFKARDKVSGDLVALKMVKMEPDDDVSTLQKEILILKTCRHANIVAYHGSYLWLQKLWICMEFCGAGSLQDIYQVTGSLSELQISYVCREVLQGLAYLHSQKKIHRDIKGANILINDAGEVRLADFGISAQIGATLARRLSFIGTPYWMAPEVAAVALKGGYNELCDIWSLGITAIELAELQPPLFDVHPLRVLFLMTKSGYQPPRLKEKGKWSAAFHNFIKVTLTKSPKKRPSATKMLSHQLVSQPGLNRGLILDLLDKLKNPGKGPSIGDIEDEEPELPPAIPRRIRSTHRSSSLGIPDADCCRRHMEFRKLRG
Take `CO[C@H]1C[C@@]2(CNc3ncc(-c4ccc(N)c(C(=O)N(C)C)c4F)c(Cl)c32)C1` [Compound 80b, 6-Amino-3-((1s,3s)-4′-chloro-3-methoxy-1′,2′-dihydrospiro[cyclobutane-1,3′-pyrrolo[2,3-b]pyridin]-5′-yl)-2-fluoro-N,N-dimethylbenzamide]: affinity was put at a Ki of 0.129 µM.

For the molecule `CC(=O)NC1CCC2(CNc3ncc(-c4ccc(N)c(C(=O)N(C)C)c4F)c(Cl)c32)C1` (stereo not shown) [Compound 83, 3-(3-Acetamido-4′-chloro-1′,2′-dihydrospiro[cyclopentane-1,3′-pyrrolo[2,3-b]pyridin]-5′-yl)-6-amino-2-fluoro-N,N-dimethylbenzamide], the inhibition constant (Ki) (as a rule, a measure of affinity in units of concentration, obtained from inhibition or displacement) came to 0.208 µM.

Regarding `CN(C)C(=O)c1c(N)ccc(-c2cnc3c(c2Cl)[C@]2(CC[C@H](n4cncn4)C2)CN3)c1F` [Compound 85a, 6-Amino-3-((1R,3S)-4′-chloro-3-(1H-1,2,4-triazol-1-yl)-1′,2′-dihydrospiro[cyclopentane-1,3′-pyrrolo[2,3-b]pyridin]-5′-yl)-2-fluoro-N,N-dimethylbenzamide], the Ki was 0.0481 µM.

For the molecule `CN(C)C(=O)c1c(N)ccc(-c2cnc3c(c2Cl)[C@]2(CC[C@@H](n4cncn4)C2)CN3)c1F` [Compound 85c, 6-Amino-3-((1R,3R)-4′-chloro-3-(1H-1,2,4-triazol-1-yl)-1′,2′-dihydrospiro[cyclopentane-1,3′-pyrrolo[2,3-b]pyridin]-5′-yl)-2-fluoro-N,N-dimethylbenzamide], the inhibition constant Ki was determined as 0.149 µM.

`C[C@@H]1C[C@@]12CNc1ncc(-c3ccc(N)c(C(=O)N(C)C)c3F)cc12` [Compound 86c, 6-Amino-2-fluoro-N,N-dimethyl-3-((1R,2R)-2-methyl-1′,2′-dihydrospiro[cyclopropane-1,3′-pyrrolo[2,3-b]pyridin]-5′-yl)benzamide] had an inhibition constant (Ki) of 0.00325 µM.

`CN(C)C(=O)c1c(N)ccc(-c2cnc3c(c2)[C@]2(CN3)C[C@@](O)(C(F)(F)F)C2)c1F` [Compound 87a] showed an inhibition constant Ki of 0.358 µM.

In the case of `CN(C)C(=O)c1c(N)ccc(-c2cnc3c(c2)[C@]2(CN3)C[C@@H](n3cncn3)C2)c1F` [Compound 88a], the Ki is 0.126 µM.

`CN(C)C(=O)c1c(N)ccc(-c2cnc3c(c2Cl)[C@]2(CC[C@@H](n4nccn4)C2)CN3)c1F` [Compound 89c, 6-Amino-3-((1R,3R)-4′-chloro-3-(2H-1,2,3-triazol-2-yl)-1′,2′-dihydrospiro[cyclopentane-1,3′-pyrrolo[2,3-b]pyridin]-5′-yl)-2-fluoro-N,N-dimethylbenzamide] had a Ki of 0.0231 µM.

As for `CN(C)C(=O)c1c(N)ccc(-c2cnc3c(c2Cl)[C@]2(CC[C@H](n4ccnn4)C2)CN3)c1F` [Compound 90a], the affinity corresponds to a Ki of 0.0518 µM.

For the molecule `CC(=O)N1CC2(CNc3ncc(-c4ccc(N)c(C(=O)N(C)C)c4F)cc32)C1` [Compound 93, 3-(1-Acetyl-1′,2′-dihydrospiro[azetidine-3,3′-pyrrolo[2,3-b]pyridin]-5′-yl)-6-amino-2-fluoro-N,N-dimethylbenzamide], the affinity corresponds to a Ki of 0.916 µM.

`CN(C)C(=O)c1c(N)ccc(-c2cnc3c(c2)C2(CN3)CC(=CC#N)C2)c1F` (stereo not shown) [Compound 94a, (s,E)-6-Amino-3-(3-(cyanomethylene)-1′,2′-dihydrospiro[cyclobutane-1,3′-pyrrolo[2,3-b]pyridin]-5′-yl)-2-fluoro-N,N-dimethylbenzamide] displayed a Ki of 0.0736 µM.

In the case of `CN(C)C(=O)c1c(N)ccc(-c2cnc3c(c2)[C@]2(CN3)C[C@@H](CC#N)C2)c1F` [Compound 95a, 6-Amino-3-((1r,3r)-3-(cyanomethyl)-1′,2′-dihydrospiro[cyclobutane-1,3′-pyrrolo[2,3-b]pyridin]-5′-yl)-2-fluoro-N,N-dimethylbenzamide], the Ki worked out at 0.12 µM.

`CN(C)C(=O)c1c(N)ccc(-c2cnc3c(c2)[C@]2(CN3)C[C@@H](C#N)C2)c1F` [Compound 96a]: the affinity, expressed as Ki, was 0.124 µM.

Molecule `CN(C)C(=O)c1c(N)ccc(-c2cnc3c(c2)[C@]2(CN3)C[C@@H](C(N)=O)C2)c1F` [Compound 97a] gave a Ki of 0.0507 µM.

Regarding `CN(C)C(=O)c1c(N)ccc(-c2cnc3c(c2)C2(CN3)CC(=CC(N)=O)C2)c1F` (stereo not shown) [Compound 101, 6-Amino-3-(3-(2-amino-2-oxoethylidene)-1′,2′-dihydrospiro[cyclobutane-1,3′-pyrrolo[2,3-b]pyridin]-5′-yl)-2-fluoro-N,N-dimethylbenzamide], the affinity corresponds to a Ki of 0.0558 µM.

`CN(C)C(=O)c1c(N)ccc(-c2cnc3c(c2)[C@]2(CN3)C[C@H](CC(N)=O)C2)c1F` [Compound 102a, 6-Amino-3-((1r,3r)-3-(2-amino-2-oxoethyl)-1′,2′-dihydrospiro[cyclobutane-1,3′-pyrrolo[2,3-b]pyridin]-5′-yl)-2-fluoro-N,N-dimethylbenzamide] had a Ki of 0.067 µM.

For the molecule `CN(C)C(=O)c1c(N)ccc(-c2cnc3c(c2Cl)C2(CCC(=CS(C)(=O)=O)C2)CN3)c1F` (stereo not shown) [Compound 103, 6-Amino-3-(4′-chloro-3-((methylsulfonyl)methylene)-1′,2′-dihydrospiro[cyclopentane-1,3′-pyrrolo[2,3-b]pyridin]-5′-yl)-2-fluoro-N,N-dimethylbenzamide], the affinity, expressed as Ki, was 0.0241 µM.

`CN(C)C(=O)c1c(N)ccc(-c2cnc3c(c2Cl)C2(CCC(=CC#N)C2)CN3)c1F` (stereo not shown) [Compound 104, 6-Amino-3-(4′-chloro-3-(cyanomethylene)-1′,2′-dihydrospiro[cyclopentane-1,3′-pyrrolo[2,3-b]pyridin]-5′-yl)-2-fluoro-N,N-dimethylbenzamide] came in with an inhibitory constant (Ki) of 0.0131 µM.

In turn, `CN(C)C(=O)c1c(N)ccc(-c2cnc3c(c2Cl)[C@]2(CC[C@](O)(CC#N)C2)CN3)c1F` [Compound 109a, 6-Amino-3-((1R,3R)-4′-chloro-3-(cyanomethyl)-3-hydroxy-1′,2′-dihydrospiro[cyclopentane-1,3′-pyrrolo[2,3-b]pyridin]-5′-yl)-2-fluoro-N,N-dimethylbenzamide] returned an inhibition constant Ki of 0.0253 µM.

In turn, `CN(C)C(=O)c1c(N)ccc(-c2cnc3c(c2Cl)C2(CCC(=CC(N)=O)C2)CN3)c1F` (stereo not shown) [Compound 110, 6-Amino-3-(3-(2-amino-2-oxoethylidene)-4′-chloro-1′,2′-dihydrospiro[cyclopentane-1,3′-pyrrolo[2,3-b]pyridin]-5′-yl)-2-fluoro-N,N-dimethylbenzamide] showed an inhibitory constant (Ki) of 0.0045 µM.

`CN(C)C(=O)c1c(N)ccc(-c2cnc3c(c2)[C@]2(CC[C@H](O)CC2)CN3)c1F` [Compound 111a, 6-Amino-2-fluoro-3-((1s,4s)-4-hydroxy-1′,2′-dihydrospiro[cyclohexane-1,3′-pyrrolo[2,3-b]pyridin]-5′-yl)-N,N-dimethylbenzamide] returned an inhibition constant (Ki) of 0.0483 µM.

Regarding `CN(C)C(=O)c1c(N)ccc(-c2cnc3c(c2)[C@]2(CC[C@@H](O)CC2)CN3)c1F` [Compound 111b, 6-Amino-2-fluoro-3-((1r,4r)-4-hydroxy-1′,2′-dihydrospiro[cyclohexane-1,3′-pyrrolo[2,3-b]pyridin]-5′-yl)-N,N-dimethylbenzamide], the Ki came to 0.172 µM.

Take `CN(C)C(=O)c1c(N)ccc(-c2cnc3c(c2Cl)C2(C=C(c4cccnc4)CC2)CN3)c1F` (stereo not shown) [Compound 112, 6-Amino-3-(4′-chloro-3-(pyridin-3-yl)-1′,2′-dihydrospiro[cyclopentane-1,3′-pyrrolo[2,3-b]pyridin]-2-en-5′-yl)-2-fluoro-N,N-dimethylbenzamide]: the Ki is 0.0066 µM.

With `COc1c(-c2ccc(N)c(C(=O)N(C)C)c2F)cnc2c1[C@]1(CC[C@@H](O)CC1)CN2` [Compound 113a, 6-Amino-2-fluoro-3-((1r,4r)-4-hydroxy-4′-methoxy-1′,2′-dihydrospiro[cyclohexane-1,3′-pyrrolo[2,3-b]pyridin]-5′-yl)-N,N-dimethylbenzamide], the inhibition constant (Ki) was 0.039 µM.

`COc1c(-c2ccc(N)c(C(=O)N(C)C)c2F)cnc2c1[C@]1(CC[C@H](O)CC1)CN2` [Compound 113b, 6-Amino-2-fluoro-3-((1s,4s)-4-hydroxy-4′-methoxy-1′,2′-dihydrospiro[cyclohexane-1,3′-pyrrolo[2,3-b]pyridin]-5′-yl)-N,N-dimethylbenzamide] came in with an inhibition constant (Ki) of 0.0151 µM.

For the molecule `CN(C)C(=O)c1c(N)ccc(-c2cnc3c(c2Cl)[C@]2(CCNC(=O)C2)CN3)c1F` [Compound 122a, (R)-6-Amino-3-(4′-chloro-2-oxo-1′,2′-dihydrospiro[piperidine-4,3′-pyrrolo[2,3-b]pyridin]-5′-yl)-2-fluoro-N,N-dimethylbenzamide], the inhibition constant (Ki) turned out to be 0.304 µM.

Consider `CN(C)C(=O)c1c(N)ccc(-c2cnc3c(c2Cl)[C@@]2(CCNC(=O)C2)CN3)c1F` [Compound 122b, (S)-6-Amino-3-(4′-chloro-2-oxo-1′,2′-dihydrospiro[piperidine-4,3′-pyrrolo[2,3-b]pyridin]-5′-yl)-2-fluoro-N,N-dimethylbenzamide], for which affinity was put at a Ki of 0.026 µM.

As to `CN(C)C(=O)c1c(N)ccc(-c2cnc3c(c2Cl)C2(CCC(CC#N)C2)CN3)c1F` (stereo not shown) [Compound 130, 6-Amino-3-(4′-chloro-3-(cyanomethyl)-1′,2′-dihydrospiro[cyclopentane-1,3′-pyrrolo[2,3-b]pyridin]-5′-yl)-2-fluoro-N,N-dimethylbenzamide], the affinity, expressed as Ki, was 0.004 µM.

In the case of `CN(Cc1cnn(C)c1)C(=O)c1cccc(-c2cnc3c(c2)C2(CC2)CN3)c1F` [Compound 136, 3-(1′,2′-dihydrospiro[cyclopropane-1,3′-pyrrolo[2,3-b]pyridin]-5′-yl)-2-fluoro-N-methyl-N-((1-methyl-1H-pyrazol-4-yl)methyl)benzamide], the affinity, expressed as Ki, was 0.0159 µM.

`CCN(C(=O)c1cccc(-c2cnc3c(c2)C2(CC2)CN3)c1F)C1CCC1` [Compound 137, N-cyclobutyl-3-(1′,2′-dihydrospiro[cyclopropane-1,3′-pyrrolo[2,3-b]pyridin]-5′-yl)-N-ethyl-2-fluorobenzamide] displayed an inhibitory constant (Ki) of 0.0341 µM.

The molecule `CN(CCC#N)C(=O)c1cccc(-c2cnc3c(c2)C2(CC2)CN3)c1F` [Compound 138, N-(2-cyanoethyl)-3-(1,2′-dihydrospiro[cyclopropane-1,3′-pyrrolo[2,3-b]pyridin]-5′-yl)-2-fluoro-N-methylbenzamide] registered a Ki of 0.0386 µM.
